Test results: patent publication US12005044B1, “Treatment of autism spectrum disorders with ergothioneine, selenoneine, or combinations thereof” (Autism Therapeutics Inc., priority 2022, dated 2024)

Experiments:
ASD individuals = test: CARS-2 scoring of ASD individuals before and after three months of ET dietary supplement; assay type: in vivo, human; set-up: key to CARS-2 Total scores, After treatment / average of total CARS-2 score after treatment: sum of 15 items, 15 (normal) to 60; ≥30 = ASD
Excerpt: Examples are described below for using ET to treat ASD-affected individuals. Each of the four individuals identified in the examples has various severity of ASD. The examples set forth herein are directed to the use of ET dietary supplement for a period of three months.
The examples below therefore adopted the CARS-2 system to evaluate ET treatment effects in four ASD individuals.
To obtain a CARS-2 score, each individual is rated on a scale of 1 (normal) to 4 (severely abnormal) with respect to each of the 15 criteria (“relationship to others”, “imitation”, “emotional response”, “body use”, “object use”, “adaptation to change”, “visual response”, “listening response”, “taste-smell-touch responses”, “fear and nervousness”, “verbal communication”, “non-verbal communication”, “activity level”, “level and reliability of intellectual responses”, and “general impressions”). A total score is obtained by combining all of 15 separate scores, ranging from 15 to 60. A score of 15 is normal. Scores below 30 are considered very mild or non-autistic; 30-36.5 are considered mild to moderate ASD and scores greater than 36.5 are considered severe ASD. The scoring can be provided by either primary care giver or the parents.
Method of treatment: ET (2 mg/kg bw per day, 54 mg daily) powder is dissolved in drinking water (200 mL). The individual is treated by ET for three months. ET has no color, no taste when dissolved in water.
Method of treatment: ET (2 mg/kg bw per day, 42 mg daily) powder is dissolved in drinking water (200 mL). The individual is treated by ET for three months.
Method of treatment: ET (1 mg/kg bw per day, 74 mg daily) powder is dissolved in drinking water (200 mL). The individual is treated by ET for three months.

[1] = EFSA Panel; cited from earlier work
[2] = Example 1, child, ET 2 mg/kg bw per day, three months, before treatment 1.5
[3] = Example 1, child, ET 2 mg/kg bw per day, three months, before treatment 2
[4] = Example 1, child, ET 2 mg/kg bw per day, three months, before treatment 2.5
[5] = Example 1, child, ET 2 mg/kg bw per day, three months, before treatment 3
[6] = Example 2, child, ET 2 mg/kg bw per day, three months, before treatment 1
[7] = Example 2, child, ET 2 mg/kg bw per day, three months, before treatment 2
[8] = Example 2, child, ET 2 mg/kg bw per day, three months, before treatment 3
[9] = Example 3, child (ASD, Asperger's Syndrome), ET 2 mg/kg bw per day, three months, before treatment 1
[10] = Example 3, child (ASD, Asperger's Syndrome), ET 2 mg/kg bw per day, three months, before treatment 1.5
[11] = Example 3, child (ASD, Asperger's Syndrome), ET 2 mg/kg bw per day, three months, before treatment 2.5
[12] = Example 4, person, ET 1 mg/kg bw per day, three months, before treatment 1
[13] = Example 4, person, ET 1 mg/kg bw per day, three months, before treatment 2
[14] = Example 4, person, ET 1 mg/kg bw per day, three months, before treatment 3
[15] = Example 4, person, ET 1 mg/kg bw per day, three months, before treatment 4

## C[N+](C)(C)[C@@H](Cc1c[nH]c(=S)[nH]1)C(=O)O [ET, ergothioneine]
ASD individuals; [2]
  CARS-2 Activity level, After treatment: 1.5
  CARS-2 Adaptation to change, After treatment: 1.5
  CARS-2 Body use, After treatment: 1.5
ASD individuals; [3]
  CARS-2 Fear and nervousness, After treatment: 1
  CARS-2 Imitation, After treatment: 2
  CARS-2 Listening response, After treatment: 2
  CARS-2 Non-verbal communication, After treatment: 2
  CARS-2 Object use, After treatment: 2
  CARS-2 Taste-smell-touch responses, After treatment: 2
ASD individuals; [4]
  CARS-2 Emotional response, After treatment: 2
  CARS-2 Relationship to others, After treatment: 2
  CARS-2 Visual response, After treatment: 2.5
ASD individuals; [5]
  CARS-2 General impressions, After treatment: 2.5
  CARS-2 Level and consistency of intellectual response, After treatment: 2
  CARS-2 Verbal communication, After treatment: 2
ASD individuals; Example 1, child, ET 2 mg/kg bw per day, three months, before treatment 33
  CARS-2 Total scores, After treatment: 28.5
ASD individuals; [6]
  CARS-2 Fear and nervousness, After treatment: 1
  CARS-2 Taste-smell-touch responses, After treatment: 1
ASD individuals; [7]
  CARS-2 Adaptation to change, After treatment: 2
  CARS-2 Body use, After treatment: 2
  CARS-2 Emotional response, After treatment: 2
  CARS-2 General impressions, After treatment: 1.5
  CARS-2 Imitation, After treatment: 2
  CARS-2 Level and consistency of intellectual response, After treatment: 2
  CARS-2 Listening response, After treatment: 1
  CARS-2 Object use, After treatment: 2
  CARS-2 Visual response, After treatment: 2
ASD individuals; [8]
  CARS-2 Activity level, After treatment: 3
  CARS-2 Non-verbal communication, After treatment: 2
  CARS-2 Relationship to others, After treatment: 2
  CARS-2 Verbal communication, After treatment: 2
ASD individuals; Example 2, child, ET 2 mg/kg bw per day, three months, before treatment 32
  CARS-2 Total scores, After treatment: 27.5
ASD individuals; [9]
  CARS-2 Adaptation to change, After treatment: 1
  CARS-2 Body use, After treatment: 1
  CARS-2 Emotional response, After treatment: 1
  CARS-2 Level and consistency of intellectual response, After treatment: 1
  CARS-2 Listening response, After treatment: 1
  CARS-2 Non-verbal communication, After treatment: 1
  CARS-2 Object use, After treatment: 1
  CARS-2 Taste-smell-touch responses, After treatment: 1
  CARS-2 Verbal communication, After treatment: 1
ASD individuals; [10]
  CARS-2 Fear and nervousness, After treatment: 1
  CARS-2 General impressions, After treatment: 1.5
  CARS-2 Visual response, After treatment: 1
ASD individuals; Example 3, child (ASD, Asperger's Syndrome), ET 2 mg/kg bw per day, three months, before treatment 2
  CARS-2 Relationship to others, After treatment: 1
ASD individuals; [11]
  CARS-2 Activity level, After treatment: 3
  CARS-2 Imitation, After treatment: 2.5
ASD individuals; Example 3, child (ASD, Asperger's Syndrome), ET 2 mg/kg bw per day, three months, before treatment 20.5
  CARS-2 Total scores, After treatment: 19
ASD individuals; Example 3, child, ET 2 mg/kg bw per day, three months
  diagnosis after ET treatment: no longer ASD
ASD individuals; [12]
  CARS-2 Adaptation to change, After treatment: 1
  CARS-2 Body use, After treatment: 1
  CARS-2 Emotional response, After treatment: 1
ASD individuals; [13]
  CARS-2 Fear and nervousness, After treatment: 1
  CARS-2 Non-verbal communication, After treatment: 2
  CARS-2 Relationship to others, After treatment: 2
  CARS-2 Visual response, After treatment: 2
ASD individuals; [14]
  CARS-2 General impressions, After treatment: 2
  CARS-2 Imitation, After treatment: 3
  CARS-2 Object use, After treatment: 3
  CARS-2 Taste-smell-touch responses, After treatment: 2.5
  CARS-2 Verbal communication, After treatment: 2
ASD individuals; Example 4, person, ET 1 mg/kg bw per day, three months, before treatment 3.5
  CARS-2 Listening response, After treatment: 3
ASD individuals; [15]
  CARS-2 Activity level, After treatment: 4
  CARS-2 Level and consistency of intellectual response, After treatment: 3
ASD individuals; Example 4, person, ET 1 mg/kg bw per day, three months, before treatment 37.5
  CARS-2 Total scores, After treatment: 31.5
ASD individuals; examples 1-4, four individuals, decreased from 30.75, T=4.37, P=0.022 by paired student t-test
  average of total CARS-2 score after treatment: 26.62
[1]
  maximum allowed ET dosage based on the no-observed-adverse-effect level (NOAEL): 800 mg/kg bw per day
